From patent US9770409B2, “Aerosol formulations of ondansetron and uses thereof” (LUXENA PHARMACEUTICALS, INC., priority 2013, dated 2017)
≈ marks a conversion by molar mass, not a printed value. Where “and” joins values, the source holds several entries; their conditions need not be identical. Identical values can stand only once. Like-named read-outs stand apart in the source and are kept apart here.

Experiments:
[1] = Particle size distribution of spray dried ondansetron fine powder by Malvern Mastersizer; format: physicochemical; settings: typical particle size distribution
Procedure: The Particle Size Distribution of the Ondansetron Fine Powder, prepared by Spray Drying using the above parameters was measured by Malvern Mastersizer (Malvern Instruments, UK) at GEA Process Engineering, Inc., Columbia, Md., USA.

[2] = Solubility of ondansetron in pMDI medium; format: physicochemical; settings: for solubility at 8 days: organic solvent or mixture, thermodynamic from solid
Procedure: The solubility of ondansetron was measured in a pMDI medium of HFA 134 as well as a mixture of HFA 134 and ethanol.

[3] = HFA 134a with Ethanol (9:1), 8 days

Cumulative % on <10 μm [1]	D10 [1]	D50 [1]	D90 [1]	Mean Size [1]	solubility at 8 days ([2]; HFA 134a (pMDI medium), HFA 134a alone, read-out: Solubility in HFA 134a, Average (RSD))	solubility at 8 days ([2]; HFA 134a (pMDI medium), HFA 134a alone, read-out: Solubility in HFA 134a, single determinations)	Solubility in HFA 134a as % w/w ([2]; HFA 134a alone, 8 days, from gravity of HFA 134a 1.21 g/mL)	Solubility in HFA 134a with Ethanol (9:1) as % w/w [2, 3]	solubility at 8 days ([2]; HFA 134a with ethanol (9:1) (pMDI medium), HFA 134a with Ethanol (9:1), read-out: Solubility in HFA 134a with Ethanol (9:1), Average (RSD))	solubility at 8 days ([2]; HFA 134a with ethanol (9:1) (pMDI medium), HFA 134a with Ethanol (9:1), read-out: Solubility in HFA 134a with Ethanol (9:1), single determinations)	Structure (SMILES)	Solubility in HFA 134a, single determinations ([2]; HFA 134a alone, 8 days)	Solubility in HFA 134a with Ethanol (9:1), single determinations [2, 3]
99.5%	3.23 μm	5.01 μm	7.22 μm	4.80 μm							Cc1nccn1CC1CCc2c(c3ccccc3n2C)C1=O (stereo not shown) [Ondansetron Fine Powder, ondansetron]		
					37.8 µg/mL (≈ 129 µM)	34.7 µg/mL (≈ 118 µM)	0.00312 % w/w	0.01668 % w/w	202 µg/mL (≈ 688 µM)	199 µg/mL (≈ 680 µM)	Cc1nccn1CC1CCc2c(c3ccccc3n2C)C1=O (stereo not shown) [ondansetron]	35.97 µg/mL and 40.27 µg/mL and 40.26 µg/mL	196.85 µg/mL and 215.75 µg/mL and 195.17 µg/mL
